Source: patent US20120148718A1, “METHOD FOR CONDITIONING ANIMAL FEED” (priority 2009, published 2012)

Assay: Surface tension of 5% solutions in water (Fisher Surface Tensiomat Model 21)
Format: physicochemical
Conditions: surfactants, Table 2
Method: The surface tensions of various organic acids and different formulations of the present invention were determined. Solutions were diluted to 5% in water and tested using a Fisher Surface Tensiomat Model 21.
Polysorbate-80 is allowed only for use in milk replacers and not for feed application. In the European Union ethoxylated castor oil surfactant is allowed for use in all animals. In order to determine a suitable surfactant to replace polysorbate-80, the surface tensions of different PEG ethoxylated castor oil surfactants were tested in 5% solutions.
The two best formulations from Example 1 were prepared using polysorbate-80 or castor oil PEG-60. The surface tension of 5% solutions of each formulation in water was determined.

Polysorbate-80
Surface Tension: 40.57 dynes/cm
